Source: patent US20100331363A1, “TREATMENT OF MITOCHONDRIAL DISORDERS USING A FARNESYL TRANSFERASE INHIBITOR” (Link Medicine Corporation, priority 2008, published 2010)
Entries after “also recorded” stand apart in the source; their conditions may differ. Where two headings read alike, the source gives them in different places. Blank lines part the entries; values can stand above or below the compound they belong to.

Assays:
LC3-II protein = LC3-II protein level in SH-SY5Y cells with or without bafilomycin A1; format: cell-based, human; settings: bafilomycin A1 10 nM alone
Description: The observed increase in LC3-positive autophagosomes could result, in principle, from either an increased flux through the autophagy pathway or decreased autophagosome degradation (Pankiv, S., et al. J Biol Chem 282, 24131-24145 (2007); Kamada, Y., et al. J Cell Biol 150, 1507-1513 (2000)). […] In order to ascertain an increase in autophagic flux, cells were co-treated with LNK-754-TS and an inhibitor of autophagosome-lysosome fusion, bafilomycin A1 (10 nM). Bafilomycin treatment alone caused a 100% increase in the amount of LC3-II, consistent with the fact that it inhibits autophagosome degradation (FIG. 8c).

GGTase [1] = biological target: T1, GGTase (Homo sapiens, UniProt P49354+P53609); settings: at 50 micromolar; cited from earlier work
LC3 mRNA = LC3 mRNA (qPCR) in SH-SY5Y cells; format: cell-based, human; settings: 100 nM, 72 hr, SH-SY5Y
Description: (§1) Cell culture and immunocytochemistry: SH-SY5Y cells were grown in DMEM medium supplemented with 10% FBS and 1% pen/strep at 37° C. and 5% CO2. Cells were differentiated with 10 μM retinoic acid for 48 hr, then treated with the either rapamycin (100 nM or 1 μM) or with 100 nM of either LNK-754-TS or Tipifarnib for 48-72 hr. Cells were then fixed with 4% paraformaldehyde and stained for LC3 (Novus biological, NB100-2331, dilution 1:800) followed by secondary Alexa-564 anti-Rabbit (A-11011).
(§2) Quantitative real-time PCR: Gene expression profiles were done by qPCR on series of known autophagy genes. RNA was extracted with Tri-reagent (Sigma), and cDNAs generated using iScript (Biorad). qPCR analysis was carried out in a 96 well plate using an iCycler (BioRad, Hercules, Calif.), and iQ SYBR Green Supermix (Biorad) according to the manufacturer's specifications.
Such increases in LC3 mRNA levels are associated in the literature with stimulation of macroautophagy. This supports the hypothesis that at doses as low as 1 nM in this in vitro system there is stimulation of autophagy in these cells.
(§3) Autophagy was measured in a neuroblastoma cell culture system by three distinct approaches: quantitation of autophagy-related mRNA's, immunofluorescence microscopy of autophagosomes, and biochemical detection of the microtubule-associated protein 1 light chain 3 (LC3) a key protein that is required for autophagosome formation. Differentiated human neuroblastoma cells (SH-SY5Y) were treated for 72 hr with LNK-754-TS (0.01-100 nM), Zarnestra® (also referred to herein as tipifarnib) (100 nM) or rapamycin (1 μM).

[2] = Pharmacokinetics of Zarnestra in C57BL/6 mice, oral; format: in vivo, mouse; settings: oral 5 mg/kg single dose; for MRT: read-out: MRT(0-[…])
Description: LLOQ: brain 4 ng/g; plasma 50 ng/ml.
The pharmacokinetic profiles of LNK-754-TS and Zarnestra® were analyzed using methods known in the art. The results are shown in FIGS. 13-14 and the tables below.

human α-synuclein = experiment: Masliah D-line α-synuclein transgenic mouse, α-synuclein immunoreactivity and ELISA; format: in vivo; settings: α-synuclein transgenic mice vs vehicle
Description: Animals and treatments: Male and female human WT alpha-synuclein over-expressing transgenic mice^32 at 6 months of age were given vehicle (10% beta-cyclodextrin) or LNK-754-TS (0.09, 0.9 and 9 mg/kg) per oral gavage twice daily for 3 months or animals at 7 months of age were given vehicle (2.5% beta-cyclodextrin) or LNK-754-TS (2 mg/kg) once every three days for 3 months. Male and female TAU transgenic mice expressing TAU441 bearing the missense mutations V337M^50 and R406W under the control of the murine Thy-1 promoter with a CB6xC57BL/6 background were 5 months old at the time when the oral treatment for three months with LNK-754-TS (0.9 and 0.09 mg/kg) as well as vehicle (2.5% beta-cyclodextrin) was started. Female human APP/PS1 (APP (London V7171)/PS1(A246E)) over-expressing transgenic mice were treated with LNK-754-TS (0.9 mg/kg) or vehicle (2.5% beta-cyclodextrin) for 2 months or 12 days.
Immunohistochemistry and quantification of stained cells: For evaluation of α-synuclein immunoreactivity (IR), 5 sagittal cryo-cut sections (10 μm slice thickness) from five different layers were used for counting of IR cells in the cortex and hippocampus. Brain sections were stained with a monoclonal human α-synuclein specific antibody (Alexis®; Cat#804-258-L001; dilution 1:5), followed by a secondary Ab Cy 2-Goat Anti-Rat (Jackson ImmunoResearch®; dilution 1:200). IR positive cells were quantified using specialized image analysis software (Image Pro Plus, version 4.5.1.29). For Tau transgenic animals, 5 μm thick coronal paraffin sections were stained with the monoclonal mouse anti-human TAU-antibodies (AT180—1:100; HT7—1:500) and visualized using an anti-mouse Cy3 secondary antibody (1:500, Jackson Laboratories®). Images were evaluated with ImageProPlus (version 6.2) image analysis software. For APP/PS1 transgenic animals sagittal hemisections (40 μm) were collected and processed for Aβ immunohistochemistry using an 6E10 antibody, Thioflavin-S staining. Primary antibodies were detected by the ABC method.
ELISA quantification of α-Synuclein in the α-Synuclein transgenic animals: Brain homogenate was centrifuged and the supernatant saved as fraction F1. The pellet was washed then resuspended and saved as fraction F2. Plates (Nunc, 464718) were coated with SYN-1 (1:1000, BD Transduction Labs, 610787). Monomeric recombinant α-synuclein was included as an internal standard. Biotinylated antibody FL-140 (1:300, Santa Cruz Biotechnology, sc-10717-B) and ExtrAvidin-Alkaline phosphatase (3:5000, Sigma, E2636) was added followed by pNPP substrate solution (Sigma, N1891). Raw absorbance (405 nm) was then normalized to the total protein concentration of each sample. In the APP/PS1 transgenic animal, brains were homogenized and the supernatant, Faction 1, was separated from the pellet. The pellets were further processed with addition of NP40 and Triton X-100. The supernatant was separated from the pellet as the insoluble membrane, Fraction 2, and was dissolved in 8M Guanidine. To quantify the amount of human Aβ-40 and Aβ-42, ELISA kits were used (The Genetics Company, Zurich, Switzerland).
In FIG. 2 is shown efficacy data for LNK-754-TS in the Masliah D-line transgenic α-synuclein mouse (an accepted model of synucleinopathies). Two trials are shown, the first (FIG. 2A) at higher doses of LNK-754-TS: 45 mg/kg and 9 mg/kg. […] The second trial (FIG. 2B) explores the low dose range for efficacy in the α-synuclein models. Here, doses start as low as 0.9 mg/kg, and extend through 9 mg/kg, all below the efficacious dose range in the mouse oncology model.
After dosing with LNK-754-TS for three months (twice daily at 0.09 mg/kg or 0.9 mg/kg), α-synuclein accumulation in the brain was analyzed by immunohistochemical (human specific α-synuclein immunoreactivity) and biochemical (α-synuclein ELISA) means. […]

FTase = FTase (Homo sapiens, UniProt P49354+P49356); settings: End et al., Cancer Research 2001; cited from earlier work
GGTase [3] = biological target: T1, GGTase; experiment: GGTase inhibitory activity, general statement; format: biochemical; settings: selective FTase inhibitors
[4] = system: autophagy-related gene transcripts; experiment: mRNA of autophagy-related genes (Atg1, p62) in SH-SY5Y cells; format: cell-based, human; settings: 100 nM, SH-SY5Y (FIG. 8d)
Description: as §2
Rapamycin is a well-characterized autophagy stimulator that acts through inhibition of mTOR, a kinase involved in nutrient signaling and regulation of cell growth and survival.

[5] = system: LC3-positive puncta (autophagosomes); experiment: LC3 immunostaining (LC3-positive puncta) in SH-SY5Y cells; format: cell-based, human; settings: 100 nM, SH-SY5Y (FIG. 8b)
Description: as §1, §3

Structure (SMILES): CO/C1=C\C(C)=C\[C@@H](C)[C@@H](O)[C@@H](C)C/C(C)=C/C=C/[C@H](OC)[C@@H]([C@@H](C)[C@@H](O)[C@H](C)[C@@]2(O)C[C@@H](O)[C@H](C)[C@@H](C(C)C)O2)OC1=O [Bafilomycin, bafilomycin A1, reference compound]
increase in the amount of LC3-II (LC3-II protein): 100%

AUC(0-t) ([2]; Brain): 44.50 ng·h/g
AUC(0-[…]) ([2]; Brain): 86.86 ng·h/g
Cmax ([2]; mouse, Brain): 6.84 ng/g
Tmax ([2]; mouse, Brain): 1 h
half-life ([2]; mouse, Brain): 8.1 h
MRT ([2]; mouse, Brain): 11.4 h
Cmax ([2]; mouse, plasma, Blood): 40.4 ng/mL
Tmax ([2]; mouse, plasma, Blood): 1 h
half-life ([2]; mouse, plasma, Blood): 1.31 h
AUC(0-t) ([2]; mouse, plasma, Blood, read-out: AUC(0-t)): 130 ng·h/mL
AUC ([2]; mouse, plasma, Blood, read-out: AUC(0-[…])): 131 ng·h/mL
MRT ([2]; mouse, plasma, Blood): 1.76 h
GGTase inhibitory activity (GGTase [3]): little to no GGTase inhibitory activity
Structure (SMILES): Cn1cncc1[C@@](N)(c1ccc(Cl)cc1)c1ccc2c(c1)c(-c1cccc(Cl)c1)cc(=O)n2C [Zarnestra®, (R)-6-(Amino(4-chlorophenyl)(1-methyl-1H-imidazol-5-yl)methyl)-4-(3-chlorophenyl)-1-methyl-2(1H)-quinolinone]
inhibition of geranylgeranylation of lamin B peptide substrate by GGTase (GGTase [1]): 40%
LC3 mRNA (LC3 mRNA): works in this assay; also recorded: upregulated
LC3 mRNA (LC3 mRNA; listed as tipifarnib): increased
levels of α-synuclein in the hippocampus (human α-synuclein): decrease levels of α-synuclein
α-synuclein inclusions (human α-synuclein): fewer α-synuclein inclusions
selectivity for FTase than GGTase (FTase): over 5,000 times
mRNA levels of a set of autophagy-related genes (incl. Atg1) [4]: unaffected
number of LC3-positive puncta [5]: distinct increase
number of LC3-positive puncta ([5]; listed as tipifarnib): increased
